Patent publication US20130295026A1, “FAST DISINTEGRATING COMPOSITIONS COMPRISING NABILONE AND RANDOMLY METHYLATED BETA CYCLODEXTRIN” (priority 2010, published 2013)

Key:
[1] = 25° C; cited from earlier work
[2] = Amount of Nabilone solubilized by cyclodextrin solutions, determined by extraction of the drug from lyophilized complexes (HPLC); details: for Increase of Nabilone solubility compared to water: water <0.5 μg/ml
Experimental: For the preparation of solubility isotherms, a surplus of Nabilone was added to a dilution series of cyclodextrins in distilled water. The surplus of Nabilone was approximately 130% of the maximum amount of Nabilone that could be resolved theoretically in the cyclodextrin solution. For the preparation of standard curves, an accurately weighted amount of Nabilone was added to an aqueous RAMEB solution. Then, the suspensions were stirred at 600 rpm at a constant temperature (4° C.-40° C.) in the cold room or in an environmental simulation chamber for the time periods indicated. Afterwards, the samples were centrifuged at 10,000 rpm and filtrated to remove undissolved particles prior to freeze-drying or HPLC analysis.
The filtrated solutions of the Nabilone—cyclodextrin complexes were frozen as a thin film on the inner side of round bottom glass container in a methanol—dry ice bath. Lyophilization was performed for 20 h using a Heto Power Dry LL3000 instrument (Thermo Fisher Scientific).
Freeze-dried products were stirred with acetonitrile for 30 min to promote complex dissociation and extraction of Nabilone. Samples were centrifuged and the residue was washed again two times with acetonitrile. Combined acetonitrile supernatants were evaporated under vacuum and the residue dissolved in a defined amount of acetonitrile. After centrifugation (10,000 rpm, 5 min) the content of Nabilone was measured using HPLC and related to 1 ml of the initial reaction solution.
Many cyclodextrins and cyclodextrin derivatives are not soluble in acetonitrile, which in contrast is the optimal solvent for Nabilone, preventing analysis of the Nabilone-cyclodextrin complexes with HPLC. […] The concentrations of the cyclodextrin solutions were adapted to their solubility in water. Whenever possible, concentrations of 15%, 20%, and 30% were selected.

Compound: CCCCCCC(C)(C)c1cc(O)c2c(c1)OC(C)(C)C1CCC(=O)CC21 (stereo not drawn) [Nabilone]
- Aqueous solubility of Nabilone [1]: less than 0.5 μg/ml
- Nabilone solubility in water ([2]; H2O, no cyclodextrin): 0.5 µg/mL
- solubility ([2]; water, thermodynamic from solid, Nabilone solubility in water, H2O, no cyclodextrin): < 0.5 µg/mL

Compound: hydroxypropyl-β-Cyclodextrin [HP-β-CD]
- Amount of Nabilone solubilized by 1 ml cyclodextrin solution ([2]; 15% cyclodextrin solution): 16.2 ± 5.4 µg/mL
- Amount of Nabilone solubilized by 1 ml cyclodextrin solution ([2]; 20% cyclodextrin solution): 32.2 ± 0.1 µg/mL
- Amount of Nabilone solubilized by 1 ml cyclodextrin solution ([2]; 30% cyclodextrin solution): 44.5 ± 0.8 µg/mL
- Increase of Nabilone solubility compared to water ([2]; 30% cyclodextrin solution): 90 fold

Compound: randomly methylated β-Cyclodextrin [RAMEB]
- Amount of Nabilone solubilized by 1 ml cyclodextrin solution ([2]; 15% cyclodextrin solution): 2620 ± 70 µg/mL
- Amount of Nabilone solubilized by 1 ml cyclodextrin solution ([2]; 20% cyclodextrin solution): 3330 ± 390 µg/mL
- Amount of Nabilone solubilized by 1 ml cyclodextrin solution ([2]; 30% cyclodextrin solution): 4,460±180 μg/ml
- Increase of Nabilone solubility compared to water ([2]; 30% cyclodextrin solution): up to 9.000 fold

Compound: β-CD sulfobutyl ether sodium salt [SBE-β-CD]
- Amount of Nabilone solubilized by 1 ml cyclodextrin solution ([2]; 30% cyclodextrin solution): <1 µg/mL
